Results reported in patent publication US20240245680A1, “Methods of Treating Retinal Vasculopathies” (Unity Biotechnology, Inc., priority 2021, published 2024).
Structures can show the parent of a compound that is named as a salt.

Assays:
[1] = target: T1, cKGA (kidney-type glutaminase) (Homo sapiens, UniProt O94925); details: cited from earlier work
T1 sequence (O94925 221-533 limits assumed): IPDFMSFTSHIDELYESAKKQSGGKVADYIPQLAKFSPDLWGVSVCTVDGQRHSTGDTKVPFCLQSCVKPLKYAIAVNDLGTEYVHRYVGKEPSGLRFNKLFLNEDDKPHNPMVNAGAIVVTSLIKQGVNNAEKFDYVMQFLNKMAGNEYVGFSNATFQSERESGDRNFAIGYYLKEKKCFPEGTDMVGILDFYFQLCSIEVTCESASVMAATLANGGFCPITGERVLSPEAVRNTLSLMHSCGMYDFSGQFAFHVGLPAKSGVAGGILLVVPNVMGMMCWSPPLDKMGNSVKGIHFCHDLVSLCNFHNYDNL

GLS2 = target: T2, GLS2 (Homo sapiens, UniProt Q9UI32); details: cited from earlier work
T2 sequence (Q9UI32 15-602): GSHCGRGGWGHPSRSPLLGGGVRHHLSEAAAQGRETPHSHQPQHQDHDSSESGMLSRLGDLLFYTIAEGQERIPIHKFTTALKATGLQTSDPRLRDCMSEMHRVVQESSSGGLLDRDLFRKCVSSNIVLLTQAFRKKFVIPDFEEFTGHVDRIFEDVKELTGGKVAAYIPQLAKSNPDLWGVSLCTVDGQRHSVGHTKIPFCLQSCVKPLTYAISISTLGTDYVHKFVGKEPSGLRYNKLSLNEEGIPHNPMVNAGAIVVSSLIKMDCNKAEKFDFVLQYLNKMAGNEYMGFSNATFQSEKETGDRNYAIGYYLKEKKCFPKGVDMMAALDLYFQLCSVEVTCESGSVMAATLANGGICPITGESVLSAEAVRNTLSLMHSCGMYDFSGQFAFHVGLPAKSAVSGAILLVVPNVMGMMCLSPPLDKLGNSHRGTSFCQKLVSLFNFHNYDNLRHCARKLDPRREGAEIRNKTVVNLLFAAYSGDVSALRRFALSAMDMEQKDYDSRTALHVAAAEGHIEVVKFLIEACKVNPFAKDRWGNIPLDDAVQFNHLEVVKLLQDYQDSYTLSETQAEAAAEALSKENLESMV

[2] = tested on: irradiated, senescent HUVEC cells; assay: Senolytic assay: irradiated senescent vs non-senescent HUVEC cells (CellTiter-Glo); type: cell-based, human; details: 1:3 dilution series, dose-dependent (FIG. 3B, 4, 6A, 6B)
Text: (§1) The ability of candidate agents to eliminate senescent retinal vascular endothelial cells or senescent retinal pigmented epithelial cells can be measured directly in the following assay. Human retinal microvascular endothelial cells (HRMEC) can be obtained from Neuromics® with the designation HEC09 or Cell Systems ACBRI 181. Human umbilical vein endothelial cells (HUVEC) can be obtained from Lonza® with the designation CC-2519. The cells can be maintained and propagated at <75% confluency in ENDO-Growth® Media (Neuromics®, Edina M N) at 3% O2, 10% CO2, and ˜95% humidity. Human retinal pigmented epithelial cells (RPE) can be obtained from Lonza® with the designation 194987. […]
(§2) On day 0, the irradiated HRMEC or RPE or HUVEC cells can be incubated with TrypLE trypsin-containing reagent (Thermofisher® Scientific, Waltham, Massachusetts) until the cells round up and begin to detach from the plate. Cells can then be dispersed, counted, and prepared in medium at a concentration of 100,000 cells per mL. […] On day 3, the quiescent healthy non-senescent HRMEC or RPE cells can be trypsinized from the culture flask as described above, and the cells can be dispersed, counted, and prepared in medium at a concentration of 80,000 cells per mL. […]

[3] = tested on: irradiated, senescent HRMEC cells; assay: Senolytic assay: irradiated senescent vs non-senescent HRMEC cells (CellTiter-Glo); type: cell-based, human; details: 1:3 dilution series, dose-dependent (FIG. 3A, FIG. 5)
Text: as §1, §2

GPX4 = target: T3, GPX4 (Mus musculus, UniProt O70325); assay: GPX4 competitive target engagement gel-shift assay, adult murine retinas; type: in vivo; details: integrated band density (FIGS. 8A-8C)
T3 construct: from tissue; host or cells: adult murine retina
T3 sequence (O70325 whole entry): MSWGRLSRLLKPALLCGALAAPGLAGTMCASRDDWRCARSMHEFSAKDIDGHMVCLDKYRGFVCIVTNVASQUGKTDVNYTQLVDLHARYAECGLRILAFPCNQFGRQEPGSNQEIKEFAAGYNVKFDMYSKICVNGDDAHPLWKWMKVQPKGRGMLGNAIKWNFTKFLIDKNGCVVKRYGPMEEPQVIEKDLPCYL
Procedure: A gel shift assay was developed for the detection of either in vitro cell line or in vivo tissue target engagement (TE) of a GPX4 inhibitor. See FIG. 7 for a schematic of the assay.
In vitro labeling protocol: Two frozen murine retinas were added directly to 0.5 mL Precellys® tubes with ceramic beads and 200 μL of cold mPER with 1× Roche EDTA-free protease inhibitors and 5 mM TCEP. The retina tissue was homogenized using a single 15 s burst at 4500 RPM at 4° C. The tubes were spun at 5 k×g for 5 min @ 4° C. to remove the foam, then all liquid was transferred to 1.5 mL Eppendorfs®. The samples were spun @ 20 k×g for 10 min at 4° C., and the clarified lysates were transferred to clean tubes. 27.5 μL of each of the vehicle controls were combined into one tube to provide a labeling standard sample.
For the labeling control, 50 μL of sample was added to 1 μL of 5 mM RSL3 and another 50 μL of sample was added to DMSO as a control. The samples were mixed and incubated for 1 hr at room temperature (RT). […]
Blots were blocked with 5% Milk in TBST for 1 hr. […] Anti-rabbit-HRP was used at 1:5000 in 5% milk in TBST for ˜1 hr RT and signal was detected using the Western Pico® ECL reagent. […] The integrated density of bands for +/−streptavidin was quantitated using ImageJ® (National Institutes of Health).

[4] = target: T4, transglutaminase 2 (TGase 2) (Homo sapiens, UniProt P21980); details: under a modified assay condition; cited from earlier work
T4 sequence (P21980 1-687): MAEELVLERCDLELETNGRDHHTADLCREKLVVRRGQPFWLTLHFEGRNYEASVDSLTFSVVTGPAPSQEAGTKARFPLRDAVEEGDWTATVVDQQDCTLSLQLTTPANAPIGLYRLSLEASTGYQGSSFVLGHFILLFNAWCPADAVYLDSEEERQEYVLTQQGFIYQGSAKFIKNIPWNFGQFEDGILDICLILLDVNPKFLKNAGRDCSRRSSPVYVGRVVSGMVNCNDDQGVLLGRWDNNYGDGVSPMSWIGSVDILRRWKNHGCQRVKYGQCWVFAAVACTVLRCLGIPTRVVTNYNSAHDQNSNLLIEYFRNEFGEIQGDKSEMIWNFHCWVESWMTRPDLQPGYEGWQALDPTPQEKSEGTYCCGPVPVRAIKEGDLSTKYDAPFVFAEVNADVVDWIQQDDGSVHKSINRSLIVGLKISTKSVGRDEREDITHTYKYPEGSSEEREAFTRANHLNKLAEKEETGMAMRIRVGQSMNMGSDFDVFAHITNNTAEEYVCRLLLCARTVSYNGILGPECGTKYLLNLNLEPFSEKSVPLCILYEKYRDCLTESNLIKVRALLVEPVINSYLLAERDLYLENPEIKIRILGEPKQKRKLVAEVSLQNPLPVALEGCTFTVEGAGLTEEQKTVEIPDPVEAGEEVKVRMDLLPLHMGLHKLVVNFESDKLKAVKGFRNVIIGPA

Molecule | selective killing of senescent HUVEC cells as compared to non-senescent HUVECs [2] | selective killing of senescent HRMEC cells as compared to non-senescent HRMECs [3] | further results
[N-]=[N+]=CC(=O)CC[C@H](N)C(=O)O [6-Diazo-5-oxo-L-norleucine] |  |  | IC50 [1]: ~1000 µM
CNC(=O)c1cn(C[C@H](F)CCc2ccc(NC(=O)Cc3cc(OC4CC(F)(F)C4)cc(C)n3)nn2)nn1 [IPN-60090 dihydrochloride] |  |  | activity against GLS-2 (GLS2): no activity observed
O=C(/C(C[N+](=O)[O-])=N/O)N1CCN(C(c2ccc(Cl)cc2)c2ccc(Cl)cc2)CC1 [JKE-1674, (E)-1-(4-(bis(4-chlorophenyl)methyl)piperazin-1-yl)-2-(hydroxyimino)-3-nitropropan-1-one] | selectively senolytic |  | 
Cc1onc(C(=O)N2CCN(C(c3ccc(Cl)cc3)c3ccc(Cl)cc3)CC2)c1[N+](=O)[O-] [ML210] |  | selectively senolytic | 
COC(=O)c1ccc([C@H]2c3[nH]c4ccccc4c3C[C@H](C(=O)OC)N2C(=O)CCl)cc1 [RSL3, (1S,3R)-methyl 2-(2-chloroacetyl)-1-(4-(methoxycarbonyl)phenyl)-2,3,4,9-tetrahydro-1H-pyrido[3,4-b]indole-3-carboxylate] | selectively senolytic | selectively senolytic | GPX4 target engagement (TE) (GPX4): dose-dependent GPX4 TE
GK921 |  |  | IC50 [4]: 8.93 µM
